The target of one experiment is T1, human LAT2 (Homo sapiens, UniProt Q9UHI5).
T1 construct: having full-length cDNA of human LAT1 or LAT2 inserted under a promoter of CMV; expressed in transfected cells
T1 sequence (Q9UHI5 1-535): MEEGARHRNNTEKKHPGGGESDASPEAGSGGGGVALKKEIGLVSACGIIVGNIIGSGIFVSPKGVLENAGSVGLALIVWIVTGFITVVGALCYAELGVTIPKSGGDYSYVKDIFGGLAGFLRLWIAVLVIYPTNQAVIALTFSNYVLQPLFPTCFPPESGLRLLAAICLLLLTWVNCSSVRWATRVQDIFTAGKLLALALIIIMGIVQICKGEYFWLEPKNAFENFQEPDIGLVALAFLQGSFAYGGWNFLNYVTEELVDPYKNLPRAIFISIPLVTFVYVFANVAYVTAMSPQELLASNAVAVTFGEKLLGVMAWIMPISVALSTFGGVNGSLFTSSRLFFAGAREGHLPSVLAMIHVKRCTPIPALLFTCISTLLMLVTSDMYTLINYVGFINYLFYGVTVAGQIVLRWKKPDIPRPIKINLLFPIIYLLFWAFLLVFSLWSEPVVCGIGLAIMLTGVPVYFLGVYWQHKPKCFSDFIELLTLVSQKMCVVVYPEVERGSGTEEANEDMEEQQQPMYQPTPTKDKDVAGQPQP
T1 sequence (P08195 1-529 partner): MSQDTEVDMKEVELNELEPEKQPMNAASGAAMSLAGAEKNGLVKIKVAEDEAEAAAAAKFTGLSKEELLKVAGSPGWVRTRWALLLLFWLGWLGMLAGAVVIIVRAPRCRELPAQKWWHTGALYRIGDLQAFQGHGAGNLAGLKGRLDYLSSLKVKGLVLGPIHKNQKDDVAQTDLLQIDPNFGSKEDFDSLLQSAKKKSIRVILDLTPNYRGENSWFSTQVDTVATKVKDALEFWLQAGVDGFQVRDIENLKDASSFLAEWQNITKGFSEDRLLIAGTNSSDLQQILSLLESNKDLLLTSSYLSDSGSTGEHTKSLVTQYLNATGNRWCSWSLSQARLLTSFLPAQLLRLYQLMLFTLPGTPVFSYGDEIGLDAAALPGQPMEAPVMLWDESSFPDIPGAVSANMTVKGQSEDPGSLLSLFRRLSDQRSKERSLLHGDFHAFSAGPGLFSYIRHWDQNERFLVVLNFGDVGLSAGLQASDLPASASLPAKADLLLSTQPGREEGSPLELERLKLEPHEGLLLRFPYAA
Put plainly: [14C]L-alanine uptake inhibition test using human-LAT2 stably expressing HEK293 cell line. The format is cell-based. An excerpt: HEK293 cells stably expressing human LAT1 and LAT2 were produced, respectively.
A shuttle vector DNA (LAT1: pcDNA3.1(+) -hLAT1, LAT2: pcDNA3.1(+) -hLAT2; expression vector pcDNA3.1 (+) was produced by Invitrogen Corp.) having ampicillin and neomycin resistance markers and having full-length cDNA of human LAT1 or LAT2 inserted under a promoter of CMV (cytomegalovirus) was constructed. This vector was transfected into the HEK293 cells by a method using Lipofectamine (registered trademark) 2000 (Invitrogen Corp.) according to the manufacturer's instructions. […]
[^14C]L-alanine uptake inhibition using the compound of Example 1-1 was performed using the human-LAT2 stably expressing HEK293 cell line. In the same manner as in the [^14C]L-leucine uptake inhibition experiment in the human-LAT1 stably expressing HEK293 cell line, the human-LAT2 stably expressing HEK293 cell line was seeded in a 24-well plate at 1×10^5 Cell/Well, and after 48 hours, 1 μM of [^14C]L-alanine was taken up in Na^+-free HBSS in the presence of the compound (0.1, 1.0, 10, 0 μM in each case), which is a racemic form, of Example 1-1 for 1 minute, then the uptake amount of [^14C]L-alanine and the protein amount of the cell lysate were measured, and the uptake amount of [^14C]L-alanine per 1 mg of protein in the cell per minute was determined.

Experiment [1] relates to Mouse colorectal cancer-derived CT26 cells. Description: Cell proliferation inhibitory effect using mouse colorectal cancer cells (CCK-8 assay). The format is cell-based. Conditions: 72 hours compound treatment, read-out: Evaluation of IC50 (proliferation inhibition rate of 50%). An outline of the steps: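 Cells seeded at 1000 per well in RPMI 1640 with 10% FBS; after 24 h medium replaced with compound at 0.01-30 μM. Viable cells counted by CCK-8 after 72 h of treatment, and IC50 taken as the concentration giving 50% proliferation inhibition relative to untreated control.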

Take `NC1(C(=O)O)CCc2ccc(Oc3ccc4ccccc4c3)cc2C1` (stereo not drawn) [Example 1-1, 2-carboxy-7-(naphthalene-2-yloxy)-1,2,3,4-tetrahydronaphthalene-2-aminium chloride]: the “inhibitory action on LAT2 alanine uptake compared with LAT1 leucine uptake inhibition” value against human LAT2 (LAT2 versus LAT1 stably expressing HEK293 cell line) is given as “weaker inhibitory action”. Further, the IC50 on human LAT2 (racemic form, 1 μM [14C]L-alanine, 1 minute, Na+-free HBSS, read-out: 50% suppression concentration, [14C]L-alanine uptake) was approximately 1000 nM; in experiment [1] it was not above 900 nM.

Values taken from patent US20260035339A1, “TETRAHYDRONAPHTHALENE DERIVATIVE” (ATRANSEN PHARMA LTD., priority 2022, published 2026).
